# Data taken from patent US20240002391A1, “4-ALKOXYPYRROLO[2,1-F][1,2,4]TRIAZINES AND PREPARATION AND USES THEREOF” (BioSplice Therapeutics, Inc., priority 2022, published 2024).
# Target: recombinant DYRK1A kinase (Homo sapiens (Human), UniProt Q13627)
# Assay: DYRK1A kinase assay (Ser/Thr 18 peptide Z-lyte FRET)
# Format: biochemical
# Details: DYRK1A kinase activity, Z-lyte Ser/Thr 18 peptide, 15 μM ATP; method text calls the value IC50; read-out: EC50 (the source's name)
# Procedure, shortened: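 Kinase 0.25 μg/mL + ATP 15 μM + Ser/Thr 18 peptide 4 μM, 1 h RT with cpd (10 μM top, 1:3, 11 pts, n=2). Dev. reagent A 1 h RT. Ex 400, Em 455/520 ratio → % phos. → IC50, nonlinear fit.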
row,Compound,IC50 [nM]
1,"COc1nc(N[C@H]2CC[C@](C)(O)CC2)nn2ccc(-c3ccc4nnn(CC(F)F)c4c3)c12 [Compound 725, (1r,4r)-4-((5-(1-(2,2-difluoroethyl)-1H-benzo[d][1,2,3]triazol-6-yl)-4-methoxypyrrolo[2,1-f][1,2,4]triazin-2-yl)amino)-1-methylcyclohexan-1-ol]",0.6
2,"COc1nc(N[C@H]2CCN(C3COC3)C[C@H]2F)nn2ccc(-c3ccc4nnn(CC(F)F)c4c3)c12 [Compound 762, 5-(1-(2,2-Difluoroethyl)-1H-benzo[d][1,2,3]triazol-6-yl)-N-((3R,4S)-3-fluoro-1-(oxetan-3-yl)piperidin-4-yl)-4-methoxypyrrolo[2,1-f][1,2,4]triazin-2-amine]",1.3
3,"COc1nc(NC2CCC(C)(C)CC2)nn2ccc(-c3cnc4nccn4c3)c12 [Compound 947, N-(4,4-Dimethylcyclohexyl)-5-(imidazo[1,2-a]pyrimidin-6-yl)-4-methoxypyrrolo[2,1-f][1,2,4]triazin-2-amine]",2.2
4,"COc1nc(N[C@H]2C[C@@H](OC)C2)nn2ccc(-c3cnc4nccn4c3)c12 [Compound 236, 5-(Imidazo[1,2-a]pyrimidin-6-yl)-4-methoxy-N-(cis-3-methoxycyclobutyl)pyrrolo[2,1-f][1,2,4]triazin-2-amine]",0.5
5,"COc1nc(N[C@H]2CC[C@H](NC(C)=O)CC2)nn2ccc(-c3ccc4nccnc4c3)c12 [Compound 344, N-(trans-4-((4-Methoxy-5-(quinoxalin-6-yl)pyrrolo[2,1-f][1,2,4]triazin-2-yl)amino)cyclohexyl)acetamide]",1.8
6,"COc1nc(N[C@@H]2CN(C3COC3)C[C@@H]2F)nn2ccc(-c3ccc4nnn(CC(F)F)c4c3)c12 [Compound 739, 5-(1-(2,2-Difluoroethyl)-1H-benzo[d][1,2,3]triazol-6-yl)-N-((3R,4S)-4-fluoro-1-(oxetan-3-yl)pyrrolidin-3-yl)-4-methoxypyrrolo[2,1-f][1,2,4]triazin-2-amine]",4.6
7,"COc1nc(N[C@H]2CCN(CC(C)(C)C#N)C[C@H]2F)nn2ccc(-c3ccc4nnn(CC(F)F)c4c3)c12 [Compound 757, 3-((3R,4S)-4-((5-(1-(2,2-Difluoroethyl)-1H-benzo[d][1,2,3]triazol-6-yl)-4-methoxypyrrolo[2,1-f][1,2,4]triazin-2-yl)amino)-3-fluoropiperidin-1-yl)-2,2-dimethylpropanenitrile]",36.7
8,"CNC(=O)c1cnc2ccc(-c3ccn4nc(N[C@H]5CC[C@](C)(OC)CC5)nc(OC)c34)cn12 [Compound 445, 6-(4-Methoxy-2-(((1r,4r)-4-methoxy-4-methylcyclohexyl)amino)pyrrolo[2,1-f][1,2,4]triazin-5-yl)-N-methylimidazo[1,2-a]pyridine-3-carboxamide]",2.1
9,"COc1nc(N[C@H]2CCN(CC(C)(C)O)C[C@H]2F)nn2ccc(-c3ccc4nnn(CC(F)F)c4c3)c12 [Compound 758, 1-((3R,4S)-4-((5-(1-(2,2-Difluoroethyl)-1H-benzo[d][1,2,3]triazol-6-yl)-4-methoxypyrrolo[2,1-f][1,2,4]triazin-2-yl)amino)-3-fluoropiperidin-1-yl)-2-methylpropan-2-ol]",1.1
10,"COc1nc(N[C@H]2C[C@](C)(C(=O)N(C)C)C2)nn2ccc(-c3ccc4nccnc4c3)c12 [Compound 339, trans-3-((4-Methoxy-5-(quinoxalin-6-yl)pyrrolo[2,1-f][1,2,4]triazin-2-yl)amino)-N,N,1-trimethylcyclobutane-1-carboxamide]",4.8
11,"C[C@]1(O)C[C@H](Nc2nc(OC3COC3)c3c(-c4ccc5nccnc5c4)ccn3n2)C1 [Compound 391, cis-1-Methyl-3-((4-(oxetan-3-yloxy)-5-(quinoxalin-6-yl)pyrrolo[2,1-f][1,2,4]triazin-2-yl)amino)cyclobutan-1-ol]",7.2
12,"COc1nc(N[C@H]2C[C@@](C)(O)C2)nn2ccc(-c3cc(F)c4nc(C)n(CC(F)F)c4c3)c12 [Compound 509, cis-3-((5-(1-(2,2-Difluoroethyl)-4-fluoro-2-methyl-1H-benzo[d]imidazol-6-yl)-4-methoxypyrrolo[2,1-f][1,2,4]triazin-2-yl)amino)-1-methylcyclobutan-1-ol]",1.4
13,"CNC(=O)c1cnn2ccc(-c3ccn4nc(NC5CCC6(CC5)COC6)nc(OC)c34)cc12 [Compound 102, 5-(2-((2-Oxaspiro[3.5]nonan-7-yl)amino)-4-methoxypyrrolo[2,1-f][1,2,4]triazin-5-yl)-N-methylpyrazolo[1,5-a]pyridine-3-carboxamide]",1.9
14,"Oc1nc(N[C@@H]2CN(C3COC3)C[C@@H]2F)nn2ccc(-c3cnc4nccn4c3)c12 [Compound 265, 2-(((3R,4S)-4-fluoro-1-(oxetan-3-yl)pyrrolidin-3-yl)amino)-5-(imidazo[1,2-a]pyrimidin-6-yl)pyrrolo[2,1-f][1,2,4]triazin-4-ol]",58.9
15,"COc1nc(N[C@H]2CN(C)C[C@H]2F)nn2ccc(-c3ccc4nccnc4c3)c12 [Compound 351, N-((3S,4R)-4-Fluoro-1-methylpyrrolidin-3-yl)-4-methoxy-5-(quinoxalin-6-yl)pyrrolo[2,1-f][1,2,4]triazin-2-amine]",8.1
16,"COc1nc(N[C@@H]2CCN(C3COC3)CC2(F)F)nn2ccc(-c3ccc4nc(C)n(CC(F)F)c4c3)c12 [Compound 142, (R)—N-(3,3-Difluoro-1-(oxetan-3-yl)piperidin-4-yl)-5-(1-(2,2-difluoroethyl)-2-methyl-1H-benzo[d]imidazol-6-yl)-4-methoxypyrrolo[2,1-f][1,2,4]triazin-2-amine]",2.7
17,"COc1nc(N[C@@H]2CCOC[C@H]2F)nn2ccc(-c3cnc4nccn4c3)c12 [Compound 1149, N-((3S,4R)-3-Fluorotetrahydro-2H-pyran-4-yl)-5-(imidazo[1,2-a]pyrimidin-6-yl)-4-methoxypyrrolo[2,1-f][1,2,4]triazin-2-amine]",4.5
18,"COc1nc(N[C@H]2C[C@@](C)(NC(C)=O)C2)nn2ccc(-c3ccc4ncnn4c3)c12 [Compound 191, N-(cis-3-((5-([1,2,4]Triazolo[1,5-a]pyridin-6-yl)-4-methoxypyrrolo[2,1-f][1,2,4]triazin-2-yl)amino)-1-methylcyclobutyl)acetamide]",5.3
19,"COc1nc(N[C@@H]2CCC[C@@H]2O)nn2ccc(-c3cnc4nccn4c3)c12 [Compound 942, (1S,2R)-2-((5-(Imidazo[1,2-a]pyrimidin-6-yl)-4-methoxypyrrolo[2,1-f][1,2,4]triazin-2-yl)amino)cyclopentan-1-ol]",18.9
20,"COc1nc(N[C@@H]2CN(C(C)=O)C[C@@H]2F)nn2ccc(-c3ccc4nnn(CC(F)F)c4c3)c12 [Compound 734, 1-((3R,4S)-3-((5-(1-(2,2-Difluoroethyl)-1H-benzo[d][1,2,3]triazol-6-yl)-4-methoxypyrrolo[2,1-f][1,2,4]triazin-2-yl)amino)-4-fluoropyrrolidin-1-yl)ethan-1-one]",0.8
21,"COc1nc(NC2CCN(C3COC3)CC2)nn2ccc(-c3ccc4nccnc4c3)c12 [Compound 365, 4-Methoxy-N-(1-(oxetan-3-yl)piperidin-4-yl)-5-(quinoxalin-6-yl)pyrrolo[2,1-f][1,2,4]triazin-2-amine]",2.8
22,"COc1nc(N[C@H]2CC[C@@](C)(O)CC2)nn2ccc(-c3cnc4nccn4c3)c12 [Compound 4, cis-4-((5-(Imidazo[1,2-a]pyrimidin-6-yl)-4-methoxypyrrolo[2,1-f][1,2,4]triazin-2-yl)amino)-1-methylcyclohexan-1-ol]",1.1
23,"COc1nc(N[C@H]2C[C@@H](OCCO)C2)nn2ccc(-c3ccc4nnn(CC(F)F)c4c3)c12 [Compound 699, 2-(cis-3-((5-(1-(2,2-Difluoroethyl)-1H-benzo[d][1,2,3]triazol-6-yl)-4-methoxypyrrolo[2,1-f][1,2,4]triazin-2-yl)amino)cyclobutoxy)ethan-1-ol]",1.4
24,"COc1nc(N[C@@H]2CN(C(C)=O)C[C@@H]2F)nn2ccc(-c3cc(F)c4nnn(CC(F)F)c4c3)c12 [Compound 812, 1-((3R,4S)-3-((5-(1-(2,2-Difluoroethyl)-4-fluoro-1H-benzo[d][1,2,3]triazol-6-yl)-4-methoxypyrrolo[2,1-f][1,2,4]triazin-2-yl)amino)-4-fluoropyrrolidin-1-yl)ethan-1-one]",2.8
25,"COc1nc(NC2CCC(=O)N(C)C2)nn2ccc(-c3ccc4nnn(CC(F)F)c4c3)c12 (stereo not shown) [Compound 793, 5-((5-(1-(2,2-Difluoroethyl)-1H-benzo[d][1,2,3]triazol-6-yl)-4-methoxypyrrolo[2,1-f][1,2,4]triazin-2-yl)amino)-1-methylpiperidin-2-one]",1.3
26,"COc1nc(N[C@H]2CCN(C(C)=O)C[C@H]2F)nn2ccc(-c3ccc4nnn(CC(F)F)c4c3)c12 [Compound 771, 1-((3R,4S)-4-((5-(1-(2,2-Difluoroethyl)-1H-benzo[d][1,2,3]triazol-6-yl)-4-methoxypyrrolo[2,1-f][1,2,4]triazin-2-yl)amino)-3-fluoropiperidin-1-yl)ethan-1-one]",0.1
27,"COc1nc(N[C@H]2C[C@](C)(C(=O)NC3CC3)C2)nn2ccc(-c3ccc4ncccc4c3)c12 [Compound 1039, trans-N-Cyclopropyl-3-((4-methoxy-5-(quinolin-6-yl)pyrrolo[2,1-f][1,2,4]triazin-2-yl)amino)-1-methylcyclobutane-1-carboxamide]",1.7
28,"COc1nc(N[C@H]2C[C@](C)(C(=O)NC3CC(F)(F)C3)C2)nn2ccc(-c3ccc4ncccc4c3)c12 [Compound 1041, trans-N-(3,3-Difluorocyclobutyl)-3-((4-methoxy-5-(quinolin-6-yl)pyrrolo[2,1-f][1,2,4]triazin-2-yl)amino)-1-methylcyclobutane-1-carboxamide]",0.9
